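Briefly, cells in 96-well plates were exposed to five compound concentrations for 48 h, and endpoints were estimated by linear interpolation. Here, GI50 denotes the concentration required for 50% inhibition of growth.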 Calls of active or inactive are those of the source. Cut-off read from the data, not from the text of the source: active = GI50 up to about 1.1 µM and inactive = higher.
Experiments:
Experiment in all cases: DTP human tumour cell line panel, 48 h
SF-539 = test system: SF-539
RXF 393 = test system: RXF 393
OVCAR-3 = test system: OVCAR-3
IGROV-1 = test system: IGROV-1
SR = test system: SR
NCI-H23 = test system: NCI-H23
UACC-257 = test system: UACC-257
SNB-75 = test system: SNB-75
MDA-MB-435 = test system: MDA-MB-435
MDA-N = test system: MDA-N
HL-60 = test system: HL-60
MCF7 = test system: MCF7
UO-31 = test system: UO-31
MOLT-4 = test system: MOLT-4
RPMI-8226 = test system: RPMI-8226
NCI/ADR-RES = test system: NCI/ADR-RES
Hs-578T = test system: Hs-578T
UACC-62 = test system: UACC-62
SK-MEL-2 = test system: SK-MEL-2
NCI-H226 = test system: NCI-H226
A498 = test system: A498
HT-29 = test system: HT-29
SF-268 = test system: SF-268
K562 = test system: K562
SK-OV-3 = test system: SK-OV-3
ACHN = test system: ACHN
DU-145 = test system: DU-145
SK-MEL-28 = test system: SK-MEL-28
OVCAR-8 = test system: OVCAR-8
PC-3 = test system: PC-3
T47D = test system: T47D
TK-10 = test system: TK-10
SW-620 = test system: SW-620
SF-295 = test system: SF-295
HCC 2998 = test system: HCC 2998
NCI-H522 = test system: NCI-H522
786-0 = test system: 786-0
NCI-H460 = test system: NCI-H460
LOX IMVI = test system: LOX IMVI
OVCAR-4 = test system: OVCAR-4
HCT-116 = test system: HCT-116
CAKI-1 = test system: CAKI-1
OVCAR-5 = test system: OVCAR-5
KM12 = test system: KM12
SNB-19 = test system: SNB-19
HOP-62 = test system: HOP-62
SK-MEL-5 = test system: SK-MEL-5
SN12C = test system: SN12C
HCT-15 = test system: HCT-15
EKVX = test system: EKVX
U-251 = test system: U-251
MDA-MB-231 = test system: MDA-MB-231
A549 = test system: A549
M14 = test system: M14
CCRF-CEM = test system: CCRF-CEM
BT-549 = test system: BT-549
HOP-92 = test system: HOP-92
COLO 205 = test system: COLO 205
Malme-3M = test system: Malme-3M

O=C1C(Cl)=C(Nc2ccc(S(=O)(=O)Nc3ccccn3)cc2)C(=O)c2ccccc21
GI50 (SF-539): 4.54 µM (inactive) | GI50 (RXF 393): 7.35 µM (inactive) | GI50 (OVCAR-3): 4.65 µM (inactive) | GI50 (IGROV-1): 5.93 µM (inactive) | GI50 (SR): 3.03 µM (inactive) | GI50 (NCI-H23): 10.8 µM (inactive) | GI50 (UACC-257): 5 µM (inactive) | GI50 (SNB-75): 7.91 µM (inactive) | GI50 (MDA-MB-435): 6.55 µM (inactive) | GI50 (MDA-N): 6.46 µM (inactive) | GI50 (HL-60): 3.3 µM (inactive) | GI50 (MCF7): 5.15 µM (inactive) | GI50 (UO-31): 9.84 µM (inactive) | GI50 (MOLT-4): 3.61 µM (inactive) | GI50 (RPMI-8226): 3.52 µM (inactive) | GI50 (NCI/ADR-RES): 9.93 µM (inactive) | GI50 (Hs-578T): 13.1 µM (inactive) | GI50 (UACC-62): 5.6 µM (inactive) | GI50 (SK-MEL-2): 5.7 µM (inactive) | GI50 (NCI-H226): 20.7 µM (inactive) | GI50 (A498): 20.7 µM (inactive) | GI50 (HT-29): 7.5 µM (inactive) | GI50 (SF-268): 8.2 µM (inactive) | GI50 (K562): 2.23 µM (inactive) | GI50 (SK-OV-3): 17 µM (inactive) | GI50 (ACHN): 10.6 µM (inactive) | GI50 (DU-145): 7.91 µM (inactive) | GI50 (SK-MEL-28): 16.3 µM (inactive) | GI50 (OVCAR-8): 4.09 µM (inactive) | GI50 (PC-3): 12.8 µM (inactive) | GI50 (T47D): 6.08 µM (inactive) | GI50 (TK-10): 7.98 µM (inactive) | GI50 (SW-620): 5.78 µM (inactive) | GI50 (SF-295): 15.3 µM (inactive) | GI50 (HCC 2998): 12.2 µM (inactive) | GI50 (NCI-H522): 5.02 µM (inactive) | GI50 (786-0): 8.22 µM (inactive) | GI50 (NCI-H460): 4.53 µM (inactive) | GI50 (LOX IMVI): 1.78 µM (inactive) | GI50 (OVCAR-4): 17.3 µM (inactive) | GI50 (HCT-116): 6.24 µM (inactive) | GI50 (CAKI-1): 16.8 µM (inactive) | GI50 (OVCAR-5): 17.9 µM (inactive) | GI50 (KM12): 13.1 µM (inactive) | GI50 (SNB-19): 16.4 µM (inactive) | GI50 (HOP-62): 13 µM (inactive) | GI50 (SK-MEL-5): 4.4 µM (inactive) | GI50 (SN12C): 11.3 µM (inactive) | GI50 (HCT-15): 4.36 µM | GI50 (EKVX): 9.4 µM (inactive) | GI50 (U-251): 5.6 µM (inactive) | GI50 (MDA-MB-231): 6.89 µM (inactive) | GI50 (A549): 18.7 µM (inactive) | GI50 (M14): 5.93 µM (inactive) | GI50 (CCRF-CEM): 3.68 µM (inactive) | GI50 (BT-549): 14.4 µM (inactive) | GI50 (HOP-92): 5.7 µM (inactive) | GI50 (COLO 205): 13.9 µM (inactive) | GI50 (Malme-3M): 2.96 µM (inactive)
